This note sets out measurements from patent EP0529622A2, “Cloning and characterization of a cardiac adenylyl cyclase” (AMERICAN CYANAMID COMPANY, priority 1991, dated 1993).

Test [1] has as its target T1, type V adenylyl cyclase (Canis lupus familiaris, UniProt P30803).
T1 construct: expressed in transfected cells; host or cells: CMT cells, crude membrane preparation
Description: P-site inhibition of adenylyl cyclase activity by adenosine and its analogues, transfected CMT membranes. Type of test: biochemical, canine. Conditions: 0-100 µM; membranes preincubated with 5 mM Mn²⁺ and 100 µM forskolin for 10 minutes. Here is the method: Figure 7 depicts the effect of adenosine and its analogues on type V adenylyl cyclase activity. Membrane (transfected with pcDNA112-72 or control) are preincubated with 5 mM Mn²⁺ and 100 µM forskolin for 10 minutes prior to the assay. […] Each point in the average of triplicate determinations.
Another feature of adenylyl cyclase is its inhibition through an allosteric purine binding or P-site (6). […] This is more apparent when the enzyme is first activated by the addition of Mn²⁺, forskolin. The order of potency was as follows: 2'-deoxy-3'-AMD>3'-AMP>2'-deoxyadenosine>adenosine (Figure 7).

The next test has as its target T2, cardiac adenylyl cyclase (Canis lupus familiaris, UniProt P30803).
T2 construct: The expression vector containing the full length cDNA is designated pcDNA113-72; expressed in transfected cells; host or cells: monkey kidney CMT cells (COS derivative), transient transfection with pcDNA113-72, crude membrane preparation
Description: Adenylyl cyclase activity assay (method of Salomon), crude membranes of CMT cells transfected with pcDNA113-72. In kind it is biochemical, canine. Conditions: for fold more stimulation than the control: transfected vs untransfected control, 100 µM forskolin. The text has this: Biochemical characterization of the protein product encoded by this cDNA is obtained using a CMT cell-expression system. The CMT cell is a derivative of the COS cell in which expression of the T-antigen is under the control of a metallothionein promoter. Thus the accumulation of T-antigen in the cell is further enhanced by the addition of heavy metal ion in the medium. The adenylyl cyclase cDNA construct (113-72) is cloned into pcDNA 1, a CMV promoter-driven expression vector with an SV40 enhancer-origin of replication element. A crude membrane preparation is prepared from the transfected CMT cells and a variety of agents known to stimulate adenylyl cyclase are examined (Table I). There is a dose-dependent relationship between the amount of plasmid transfected and the resultant adenylyl cyclase activity, both basal and forskolin-stimulated (0-30 µg per transfection). When the plasmid without insert is transfected, the resultant adenylyl cyclase activity is slightly (∼15%) lower than that of mock-transfected cells. All activities are enhanced several-fold in the transfected cells, as compared to controls, with the forskolin-stimulated activity showing the greatest increase in activity (>6-fold increase over control).
In an example of such expression, twenty µg of the purified plasmid pcDNA 113-72 are transfected into the monkey kidney CMT cells using a modified method of Golub et al. (17). Briefly, the cells are grown to 80% confluence in Dulbecco's modification of Eagle's Medium, 10% fetal calf serum, 2 mM glutamine, 4.5 mg/ml glucose, 10 µg/ml streptomycin sulfate and 60 µg/ml penicillin K. After washing with PBS twice, 0.5 ml of trypsin solution is added. The cells are incubated for 10 minutes, and 20 µg of purified plasmid resuspended in 4 ml of DMEM containing 400 µg/ml DEAE dextran and 0.1 mM chloroquine is added. The cells are incubated for four hours followed by 10% DMSO shock for two minutes. After washing with PBS twice, the induction media, which contains 10% fetal calf serum (FCS), 2 mM glutamine, […], 2 mM penicillin and streptomycin, and 1 µM CdCl₂, 0.1 µM ZnCl₂ in DMEM, is added. The plate is incubated at 37 °C for 72 hours before harvesting.
The biochemical property of this cardiac adenylyl cyclase is examined in a transient expression system using CMT cells (a derivative of COS cells). CMT cells contain T-antigen driven by a methalothionein promoter in the genome. Thus by induction with heavy metal ion in the medium, CMT cells could produce more T-antigen than COS cells. A 4.3 kb fragment of the adenylyl cyclase cDNA (#113-72) containing the whole coding sequence is inserted into the pcDNA1 plasmid described above (Invitrogen).
The adenylyl cyclase activity of a cell transfected with the expression vector pcDNA1 carrying cardiac adenylyl cyclase cDNA is assayed as follows. The transfected CMT cells are washed twice with PBS and scraped in three ml of cold buffer containing 50 mM Tris (pH8.0), 1 mM EDTA, 10 µM PMSF (phenylmethylsulfonylfluoride), 100 U leupeptin, and 50 U egg white trypsin inhibitor (ETI) on ice. The membrane is homogenated in Polytron™ (setting 6 for 10 seconds) and is centrifuged at 800 x g for 10 minutes at 4 °C. The supernatant is further centrifuged at […] for 40 minutes at 4 °C. The resultant pellet is resuspended in 50 mM Tris (pH 8.0), 1 mM EDTA, 1 µM PMSF, 50 U leupeptin, and 50 U ETI, to a concentration of 5 µg/µl. This crude membrane solution is used for the adenylyl cyclase asssay. […]

The next test has as its system untransfected CMT cells. In words: Adenylyl cyclase activity assay, membrane from untransfected CMT cells (control). Type of test: biochemical, monkey. The settings on record: Control (untransfected CMT cell membrane), ± standard error.
In test [2] the target is T1, type V adenylyl cyclase. In words: Calcium/calmodulin sensitivity of adenylyl cyclase activity, transfected CMT cell membranes. In kind it is biochemical, canine. Conditions: 30 µg crude CMT cell membrane; 0-1 mM calcium (CaCl₂); membranes washed with EGTA. Here is the method:
Figure 6 depicts the effect of calcium on type V adenylyl cyclase activity. Adenylyl cyclase activity (CMT cells transfected with pcDNA113-72 or cardiac sarcolemma) is measured in the presence of increasig concentrations of calcium (0-1 mM). Cardiac sarcolemma is prepared as described (26). Both membrane preparations are first washed with EGTA prior to assay (27). Similar results are obtained in three independent experiments. The efficiency of transfection is confirmed by at least a 4-fold increase in both basal and forskolin-stimulated adenylyl cyclase activities over control.
The calcium/calmodulin sensitivity of this protein is also assessed. […] Thirty µg of the crude CMT cell membrane preparation are incubated in the presence of increasing concentrations of CaCl₂. […] The adenylyl cyclase activity also is assessed in canine cardiac sarcolemma.

The mark [3] stands for this setting: 10 mM sodium fluoride, 100 µM GTPγS.

T2 sequence (P30803 82-1265 limits assumed): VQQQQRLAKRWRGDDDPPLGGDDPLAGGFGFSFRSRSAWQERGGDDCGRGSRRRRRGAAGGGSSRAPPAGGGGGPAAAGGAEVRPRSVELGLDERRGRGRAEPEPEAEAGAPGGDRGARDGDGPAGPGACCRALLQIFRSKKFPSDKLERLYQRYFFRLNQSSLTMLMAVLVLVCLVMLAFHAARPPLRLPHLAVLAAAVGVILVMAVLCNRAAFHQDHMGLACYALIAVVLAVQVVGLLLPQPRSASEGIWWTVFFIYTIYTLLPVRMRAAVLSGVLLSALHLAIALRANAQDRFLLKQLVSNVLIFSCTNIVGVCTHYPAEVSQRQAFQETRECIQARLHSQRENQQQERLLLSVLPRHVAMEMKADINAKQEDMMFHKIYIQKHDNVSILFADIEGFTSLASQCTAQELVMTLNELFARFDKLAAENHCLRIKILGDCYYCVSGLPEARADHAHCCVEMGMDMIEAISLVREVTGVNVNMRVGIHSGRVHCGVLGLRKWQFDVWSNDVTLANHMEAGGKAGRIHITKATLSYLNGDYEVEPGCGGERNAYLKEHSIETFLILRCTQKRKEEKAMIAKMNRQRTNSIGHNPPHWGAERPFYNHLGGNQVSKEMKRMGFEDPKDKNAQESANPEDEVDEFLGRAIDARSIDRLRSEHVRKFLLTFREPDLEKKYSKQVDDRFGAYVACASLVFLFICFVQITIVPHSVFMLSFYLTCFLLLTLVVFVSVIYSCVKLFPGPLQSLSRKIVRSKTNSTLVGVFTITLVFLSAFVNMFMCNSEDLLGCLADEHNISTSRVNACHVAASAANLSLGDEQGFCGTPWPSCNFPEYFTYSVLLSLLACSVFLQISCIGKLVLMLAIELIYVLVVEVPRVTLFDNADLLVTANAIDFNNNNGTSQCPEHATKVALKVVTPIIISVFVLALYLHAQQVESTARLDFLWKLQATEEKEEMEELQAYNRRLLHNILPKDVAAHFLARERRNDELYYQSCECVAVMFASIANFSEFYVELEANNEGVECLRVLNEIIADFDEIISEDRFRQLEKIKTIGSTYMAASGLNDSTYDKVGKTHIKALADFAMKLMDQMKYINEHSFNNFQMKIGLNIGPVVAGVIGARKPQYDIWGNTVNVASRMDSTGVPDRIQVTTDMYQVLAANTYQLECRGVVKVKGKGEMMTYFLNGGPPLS
T1 sequence (P30803 82-1265 limits assumed): as above
Description for untransfected CMT cells: The adenylyl cyclase activity of a cell transfected with the expression vector pcDNA1 carrying cardiac adenylyl cyclase cDNA is assayed as follows. The transfected CMT cells are washed twice with PBS and scraped in three ml of cold buffer containing 50 mM Tris (pH8.0), 1 mM EDTA, 10 µM PMSF (phenylmethylsulfonylfluoride), 100 U leupeptin, and 50 U egg white trypsin inhibitor (ETI) on ice. The membrane is homogenated in Polytron™ (setting 6 for 10 seconds) and is centrifuged at 800 x g for 10 minutes at 4 °C. The supernatant is further centrifuged at 100 x g for 40 minutes at 4 °C. The resultant pellet is resuspended in 50 mM Tris (pH 8.0), 1 mM EDTA, 1 µM PMSF, 50 U leupeptin, and 50 U ETI, to a concentration of 5 µg/µl. This crude membrane solution is used for the adenylyl cyclase asssay.
The adenylyl cyclase assay is performed by the method of Salomon (21). Briefly, the crude membranes from CMT cells are resuspended in a solution containing 1 mM creatine phosphate, 8 µg/ml creatine phophokinase, 4 mM HEPES (pH 8.0), 2 mM MgCl₂, 0.1 mM c-AMP, 0.1 mM ATP, and ³²P-ATP (0.2-5 µCi/assay tube). […] Cyclic-AMP is separated from ATP by passing through Dowex and alumina columns, and the radioactivity is counted by scintillation counter. The protein concentration of the membranes used are measured by Bradford's method (22), with bovine serum albumin as a standard. […]

In the case of `Nc1ncnc2c1ncn2[C@H]1C[C@H](OP(=O)(O)O)[C@@H](CO)O1` [2'-deoxy-3'-AMD], the “order of potency of inhibition of adenylyl cyclase activity” value at type V adenylyl cyclase [1] is 2'-deoxy-3'-AMD>3'-AMP>2'-deoxyadenosine>adenosine.

On to `Nc1ncnc2c1ncn2[C@H]1C[C@H](O)[C@@H](CO)O1` [2'-deoxyadenosine], for which the “order of potency of inhibition of adenylyl cyclase activity” value on type V adenylyl cyclase [1] is reported as 2'-deoxy-3'-AMD>3'-AMP>2'-deoxyadenosine>adenosine. As to `Nc1ncnc2c1ncn2[C@@H]1O[C@H](CO)[C@@H](OP(=O)(O)O)[C@H]1O` [3'-AMP], the “order of potency of inhibition of adenylyl cyclase activity” value at type V adenylyl cyclase [1] was 2'-deoxy-3'-AMD>3'-AMP>2'-deoxyadenosine>adenosine. In the case of `Nc1nc2c(ncn2[C@@H]2O[C@H](COP(=O)(O)OP(=O)(O)OP(O)(O)=S)[C@@H](O)[C@H]2O)c(=O)[nH]1` [GTPγS], the “adenylyl cyclase activity, GTPγS” value at cardiac adenylyl cyclase (Transfected CMT cell membranes, 100 µM GTPγS, ± standard error) was 84±12.5; in the test with untransfected CMT cells (100 µM GTPγS), 30± 4.5. The “fold more stimulation than the control” value on cardiac adenylyl cyclase (setting [3]) was determined as 2.8 fold.

For `[F-].[Na+]` [NaF, sodium fluoride], the “adenylyl cyclase activity, NaF” value on cardiac adenylyl cyclase (Transfected CMT cell membranes, 10 mM sodium fluoride, ± standard error) was 41±4.7; with untransfected CMT cells (10 mM sodium fluoride), 15±3.1. Also, on cardiac adenylyl cyclase (setting [3]), the “fold more stimulation than the control” value is 2.7 fold. Regarding `Nc1ncnc2c1ncn2[C@@H]1O[C@H](CO)[C@@H](O)[C@H]1O` [adenosine], at type V adenylyl cyclase [1], the “order of potency of inhibition of adenylyl cyclase activity” value was 2'-deoxy-3'-AMD>3'-AMP>2'-deoxyadenosine>adenosine. As to CaCl₂ [calcium], at type V adenylyl cyclase [2], the “effect of calcium on adenylyl cyclase activity” value is recorded as “inhibited in a concentration-dependent manner”. As for manganese, the “adenylyl cyclase activity stimulated over the control” value at cardiac adenylyl cyclase (in the presence of 5 mM manganese) was “more than 10 fold”.
